These results are taken from ChEMBL document CHEMBL3351821, “Naturally occurring N(6)-substituted adenosines (cytokinin ribosides) are in vitro inhibitors of platelet aggregation: an in silico evaluation of their interaction with the P2Y(12) receptor” (Bioorg Med Chem Lett, 2014).

Calls of active or inactive are those of the source. No cut-off for these calls is given here.

The experiment concerns Platelet. The experiment is described as follows: Inhibition of collagen-induced human platelet aggregation after 3 mins by light transmission aggregometry. Format: functional, cell-based. The settings on record: for IC50: 0.05 h.

One may read the IC50 as the concentration at which inhibition is half-maximal. Consider `CC(C)=CCNc1ncnc2c1ncn2[C@@H]1O[C@H](CO)[C@@H](O)[C@H]1O` [RIBOPRINE], for which it took 142 µM to reach half-maximal inhibition (IC50). On the same count and under the same terms, the figure for `OC[C@H]1O[C@@H](n2cnc3c(NCc4ccccc4)ncnc32)[C@H](O)[C@@H]1O` [N6-BENZYLADENOSINE] is 37.1 µM. Same read-out and setting: the result for `OC[C@H]1O[C@@H](n2cnc3c(NCc4ccco4)ncnc32)[C@H](O)[C@@H]1O` [KINETIN RIBOSIDE] reads 41.2 µM; that for `OC[C@H]1O[C@@H](n2cnc3c(NCc4ccc(O)cc4)ncnc32)[C@H](O)[C@@H]1O`, 6.77 µM. As to `c1coc(CNc2ncnc3[nH]cnc23)c1`, the inhibition result is “Active”.
